Laboratory results reported in patent US20110082130A1 (LIGAND PHARMACEUTICALS, INC., priority 2006, published 2011).

molecular target: T1, chimeric human H3 receptor (Homo sapiens, UniProt Q9Y5N1); test: Chimeric human H3 receptor GTP binding assay (agonist-stimulated GTP-gamma35S binding, Example 7); type: biochemical; conditions: Table II; "*" = Ki in assay of Example 7 less than 1 micromolar
T1 construct: made in house; host or cells: Sf9 insect cells (baculovirus); P2 membrane preparation
Procedure, shortened: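 Sf9 membranes co-expressing chimeric human H3 receptor and heterotrimeric G-protein, 35 μg/tube, in pH 7.4 Tris buffer with 10 μM GDP. Test compounds (10^−10–10^−6 M) competed against 1 μM histamine, […] GTP-gamma35S, 60 min at room temperature. Filter-bound radioactivity counted; IC50 converted to Ki by Cheng-Prusoff. Agonism/inverse agonism tested without histamine (EC50).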

T1 sequence (Q9Y5N1 with tags, fused parts or gaps): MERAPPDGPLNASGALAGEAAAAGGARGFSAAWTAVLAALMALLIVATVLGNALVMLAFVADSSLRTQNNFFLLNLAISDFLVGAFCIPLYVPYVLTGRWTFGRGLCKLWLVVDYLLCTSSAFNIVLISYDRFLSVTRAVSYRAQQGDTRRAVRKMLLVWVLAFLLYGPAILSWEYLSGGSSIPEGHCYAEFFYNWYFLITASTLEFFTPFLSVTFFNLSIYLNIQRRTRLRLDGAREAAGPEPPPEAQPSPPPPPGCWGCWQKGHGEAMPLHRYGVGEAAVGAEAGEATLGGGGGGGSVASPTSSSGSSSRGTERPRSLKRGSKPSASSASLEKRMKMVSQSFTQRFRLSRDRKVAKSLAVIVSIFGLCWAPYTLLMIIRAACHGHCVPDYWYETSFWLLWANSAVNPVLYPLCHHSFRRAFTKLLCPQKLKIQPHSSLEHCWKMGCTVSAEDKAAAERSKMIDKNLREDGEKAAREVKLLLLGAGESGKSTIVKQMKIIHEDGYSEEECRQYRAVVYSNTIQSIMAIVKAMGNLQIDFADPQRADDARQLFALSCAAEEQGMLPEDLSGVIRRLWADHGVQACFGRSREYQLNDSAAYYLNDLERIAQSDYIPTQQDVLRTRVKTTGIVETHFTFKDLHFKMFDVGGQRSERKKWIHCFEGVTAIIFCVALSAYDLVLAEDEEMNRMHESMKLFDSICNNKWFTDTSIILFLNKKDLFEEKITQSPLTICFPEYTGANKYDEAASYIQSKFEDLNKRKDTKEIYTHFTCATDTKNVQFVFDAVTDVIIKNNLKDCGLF

Structure (SMILES)	Ki [nM]
CC1CN(C(=O)CN2CCc3nc(-c4cncnc4)sc3C2)CCN1C1CCC1 (stereo not drawn) [Compound 111, 5-[2-(4-cyclobutyl-3-methylpiperazin-1-yl)-2-oxoethyl]-2-pyrimidin-5-yl-4,5,6,7-tetrahydro[1,3] thiazolo [5,4-c]pyridine]	< 1000
CC1CN(C(=O)CN2CCc3nc(-c4cscn4)sc3C2)CCN1C1CCC1 (stereo not drawn) [Compound 113, 5-[2-(4-cyclobutyl-3-methylpiperazin-1-yl)-2-oxoethyl]-2-(1,3-thiazol-4-yl)-4,5,6,7-tetrahydro[1,3]thiazolo [5,4-c]pyridine]	< 1000
CC1CN(C(=O)CN2CCc3nc(-c4ccncc4)sc3C2)CCN1C1CCC1 (stereo not drawn) [Compound 114, 5-[2-(4-cyclobutyl-3-methylpiperazin-1-yl)-2-oxoethyl]-2-pyridin-4-yl-4,5,6,7-tetrahydro[1,3]thiazolo [5,4-c]pyridine]	< 1000
CC1CN(C(=O)CN2CCc3nc(-c4nccs4)sc3C2)CCN1C1CCC1 (stereo not drawn) [Compound 115, 5-[2-(4-cyclobutyl-3-methylpiperazin-1-yl)-2-oxoethyl]-2-(1,3-thiazol-2-yl)-4,5,6,7-tetrahydro[1,3]thiazolo [5,4-c]pyridine]	< 1000
CCOC(=O)c1cnc2c(c1)CCN(CC(=O)N1CCN(C3CCC3)C(C)C1)C2 (stereo not drawn) [Compound 117, ethyl 7-[2-(4-cyclobutyl-3-methylpiperazin-1-yl)-2-oxoethyl]-5,6,7,8-tetrahydro-1,7-naphthyridine-3-carboxylate]	< 1000
CNC(=O)c1cnc2c(c1)CCN(CC(=O)N1CCN(C3CCC3)C(C)C1)C2 (stereo not drawn) [Compound 121, 7-[2-(4-cyclobutyl-3-methylpiperazin-1-yl)-2-oxoethyl]-N-methyl-5,6,7,8-tetrahydro-1,7-naphthyridine-3-carboxamide]	< 1000
O=C(CN1CCc2cn(-c3cccnc3)nc2C1)N1CCN(C2CCC2)CC1 [Compound 123, 6-[2-(4-cyclobutylpiperazin-1-yl)-2-oxoethyl]-2-pyridin-3-yl-4,5,6,7-tetrahydro-2H-pyrazolo[3,4-c]pyridine]	< 1000
O=C(CN1CCc2cn(-c3cncnc3)nc2C1)N1CCN(C2CCC2)CC1 [Compound 124, 6-[2-(4-cyclobutylpiperazin-1-yl)-2-oxoethyl]-2-pyrimidin-5-yl-4,5,6,7-tetrahydro-2H-pyrazolo[3,4-c]pyridine]	< 1000
CC1CN(C(=O)CN2CCc3nc(C(=O)NC4CCC4)ccc3C2)CCN1C1CCC1 (stereo not drawn) [Compound 126, N-cyclobutyl-6-[2-(4-cyclobutyl-3-methylpiperazin-1-yl)-2-oxoethyl)-5,6,7,8-tetrahydro-1,6-naphthyridine-2-carboxamide]	< 1000
O=C(CN1CCc2nc(N3CCOCC3)ncc2C1)N1CCN(C2CCC2)CC1 [Compound 139, 6-[2-(4-cyclobutylpiperazin-1-yl)-2-oxoethyl]-2-morpholin-4-yl-5,6,7,8-tetrahydropyrido[4,3-d]pyrimidine]	< 1000
CC(=O)c1ccc2c(c1)CCN(CC(=O)N1CCN(C(C)C)CC1)C2 [Compound 141, 1-{2-[2-(4-isopropylpiperazin-1-yl)-2-oxoethyl]-1,2,3,4-tetrahydroisoquinolin-6-yl}ethanone]	< 1000
CC(=O)c1ccc2c(c1)CCN(CC(=O)N1CCN3C(C)CCCC3C1)C2 (stereo not drawn) [Compound 142, 1-{2-[2-(6-methyloctahydro-2H-pyrido[1,2-a]pyrazin-2-yl)-2-oxoethyl]-1,2,3,4-tetrahydroisoquinolin-6-yl}ethanone]	< 1000
O=C(CN1CCc2nc(-c3cccnc3)ncc2C1)N1CCN(C2CCC2)CC1 [Compound 143, 6-[2-(4-cyclobutylpiperazin-1-yl)-2-oxoethyl]-2-pyridin-3-yl-5,6,7,8-tetrahydropyrido[4,3-d]pyrimidine]	< 1000
O=C(CN1CCc2nc(-c3ccccn3)ncc2C1)N1CCN(C2CCC2)CC1 [Compound 144, 6-[2-(4-cyclobutylpiperazin-1-yl)-2-oxoethyl]-2-pyridin-2-yl-5,6,7,8-tetrahydropyrido[4,3-d]pyrimidine]	< 1000
CCC(CC)N1CCN(C(=O)CN2CCc3cc(-c4cncnc4)ccc3C2)CC1 [Compound 145, 2-{2-[4-(1-ethylpropyl)piperazin-1-yl]-2-oxoethyl}-6-pyrimidin-5-yl-1,2,3,4-tetrahydroisoquinoline]	< 1000
O=C(CN1CCc2cc(-c3cncnc3)ccc2C1)N1CCN2CCCCC2C1 (stereo not drawn) [Compound 151, 2-[(6-pyrimidin-5-yl-3,4-dihydroisoquinolin-2(1H)-yl)acetyl]octahydro-2H-pyrido[1,2-a]pyrazine]	< 1000

Now from value to compound:

Ki [nM]	Structure (SMILES)
< 1000	CCOC(=O)c1cnc2c(c1)CCN(CC(=O)N1CCN(C3CCC3)CC1)C2 [Compound 116, ethyl 7-[2-(4-cyclobutylpiperazin-1-yl)-2-oxoethyl]-5,6,7,8-tetrahydro-1,7-naphthyridine-3-carboxylate]
< 1000	O=C(CN1CCc2cc(Br)ccc2C1)N1CCN(C2CCC2)CC1 [Compound 118, 6-bromo-2-[2-(4-cyclobutylpiperazin-1-yl)-2-oxoethyl]-1,2,3,4-tetrahydroisoquinoline]
< 1000	O=C(CN1CCc2cc(-c3cscn3)ccc2C1)N1CCN(C2CCC2)CC1 [Compound 119, 2-[2-(4-cyclobutylpiperazin-1-yl)-2-oxoethyl]-6-(1,3-thiazol-4-yl)-1,2,3,4-tetrahydroisoquinoline]
< 1000	O=C(CN1CCc2cc(-c3nccs3)ccc2C1)N1CCN(C2CCC2)CC1 [Compound 120, 2-[2-(4-cyclobutylpiperazin-1-yl)-2-oxoethyl]-6-(1,3-thiazol-2-yl)-1,2,3,4-tetrahydroisoquinoline]
< 1000	O=C(CN1CCc2cc(-n3cccn3)ccc2C1)N1CCN(C2CCC2)CC1 [Compound 122, 2-[2-(4-cyclobutylpiperazin-1-yl)-2-oxoethyl]-6-(1H-pyrazol-1-yl)-1,2,3,4-tetrahydroisoquinoline]
< 1000	O=C(NC1CCC1)c1ccc2c(n1)CCN(CC(=O)N1CCN(C3CCC3)CC1)C2 [Compound 125, N-cyclobutyl-6-[2-(4-cyclobutylpiperazin-1-yl)-2-oxoethyl]-5,6,7,8-tetrahydro-1,6-naphthyridine-2-carboxamide]
< 1000	Cn1cc(-c2ccc3c(c2)CCN(CC(=O)N2CCN(C4CCC4)CC2)C3)cn1 [Compound 127, 2-[2-(4-cyclobutylpiperazin-1-yl)-2-oxoethyl]-6-(1-methyl-1H-pyrazol-4-yl)1,2,3,4-tetrahydroisoquinoline]
< 1000	O=C(CN1CCc2cc(-c3cnccn3)ccc2C1)N1CCN(C2CCC2)CC1 [Compound 128, 2-[2-(4-cyclobutylpiperazin-1-yl)-2-oxoethyl]-6-pyrazin-2-yl-1,2,3,4-tetrahydroisoquinoline]
< 1000	O=C(CN1CCc2cc(-c3cccnn3)ccc2C1)N1CCN(C2CCC2)CC1 [Compound 129, 2-[2-(4-cyclobutylpiperazin-1-yl)-2-oxoethyl]-6-pyridazin-3-yl-1,2,3,4-tetrahydroisoquinoline]
< 1000	O=C(CN1CCc2cc(-c3ccccn3)ccc2C1)N1CCN(C2CCC2)CC1 [Compound 130, 2-[2-(4-cyclobutylpiperazin-1-yl)-2-oxoethyl]-6-pyridin-2-yl-1,2,3,4-tetrahydroisoquinoline]
< 1000	O=C(CN1CCc2cc(-c3ncccn3)ccc2C1)N1CCN(C2CCC2)CC1 [Compound 131, 2-[2-(4-cyclobutylpiperazin-1-yl)-2-oxoethyl]-6-pyrimidin-2-yl-1,2,3,4-tetrahydroisoquinoline]
< 1000	O=C(CN1CCc2cc(-c3cncs3)ccc2C1)N1CCN(C2CCC2)CC1 [Compound 132, 2-[2-(4-cyclobutylpiperazin-1-yl)-2-oxoethyl]-6-(1,3-thiazol-5-yl)-1,2,3,4-tetrahydroisoquinoline]
< 1000	O=C(CN1CCc2[nH]c(=O)ccc2C1)N1CCN(C2CCCC2)CC1 [Compound 133, 6-[2-(4-cyclopentylpiperazin-1-yl)-2-oxoethyl]-5,6,7,8-tetrahydro-1,6-naphthyridin-2(1H)-one]
< 1000	O=C(CN1CCc2[nH]c(=O)ccc2C1)N1CCN(C2CCC2)CC1 [Compound 134, 6-[2-(4-cyclobutylpiperazin-1-yl)-2-oxoethyl]-5,6,7,8-tetrahydro-1,6-naphthyridin-2(1H)-one]
< 1000	CC(C)N1CCN(C(=O)CN2CCc3[nH]c(=O)ccc3C2)CC1 [Compound 135, 6-[2-(4-isopropylpiperazin-1-yl)-2-oxoethyl]-5,6,7,8-tetrahydro-1,6-naphthyridin-2(1H)-one]
< 1000	O=C(CN1CCc2[nH]c(=O)ccc2C1)N1CCN(C2CCCCC2)CC1 [Compound 136, 6-[2-(4-cyclohexylpiperazin-1-yl)-2-oxoethyl]-5,6,7,8-tetrahydro-1,6-naphthyridin-2(1H)-one]
< 1000	O=C(CN1CCc2nc(-c3ccncc3)ncc2C1)N1CCN(C2CCC2)CC1 [Compound 137, 6-[2-(4-cyclobutylpiperazin-1-yl)-2-oxoethyl]-2-pyridin-4-yl-5,6,7,8-tetrahydropyrido[4,3-d]pyrimidine]
< 1000	O=C(CN1CCc2nc(-c3ccncc3)ncc2C1)N1CCN(C2CCCC2)CC1 [Compound 138, 6-[2-(4-cyclopentylpiperazin-1-yl)-2-oxoethyl]-2-pyridin-4-yl-5,6,7,8-tetrahydropyrido[4,3-d]pyrimidine]
< 1000	O=C(CN1CCc2nc(N3CCOCC3)ncc2C1)N1CCN(C2CCCC2)CC1 [Compound 140, 6-[2-(4-cyclopentylpiperazin-1-yl)-2-oxoethyl]-2-morpholin-4-yl-5,6,7,8-tetrahydropyrido[4,3-d]pyrimidine]
< 1000	O=C(CN1CCc2cc(Br)ccc2C1)N1CCN2CCCCC2C1 (stereo not drawn) [Compound 148, 2-[(6-bromo-3,4-dihydroisoquinolin-2(1H)-yl)acetyl]octahydro-2H-pyrido[1,2-a]pyrazine]
